Several values for one entry are separate records, joined by “and”; a condition that tells them apart may be missing. Identical values can stand only once.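 Five concentrations, 48 hours, 96-well plates. GI50 marks 50% less growth. TGI marks complete inhibition of growth.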

Test systems include OVCAR-4 ovarian; SF-268 CNS; NCI-H460 lung; HOP-62 NSCLC; HT29 colon; MOLT-4 leukemia; MDA-MB-435; SR leukemia; HCT-15 colon; OVCAR-3 ovarian.
What all share (experiment): inhibition of tumour cell growth, NCI panel, 48 h

On to `COc1cc(C2c3cc4c(cc3[C@@H](Nc3ccc(C#N)cc3)C3COC(=O)[C@H]23)OCO4)cc(OC)c1O` (stereo partly specified), for which the TGI in the test with OVCAR-4 ovarian is 19.2 µM; with SF-268 CNS, 42.5 µM and > 100 µM; in the test with HOP-62 NSCLC, 2.82 µM and 0.59 µM and 2.57 µM; in the test on HT29 colon it was 11.6 µM and 14 µM; in the test with MDA-MB-435, 50 µM and > 100 µM; in the test on SR leukemia, 50 µM and > 100 µM. Besides, the TGI in the test on HCT-15 colon was 18 µM; in the test with OVCAR-3 ovarian, 50 µM and 5.33 µM and 5.32 µM. The GI50 in the test with SF-268 CNS was 1.4 µM; in the test on NCI-H460 lung it was 0.0174 µM and 0.0261 µM; in the test with HOP-62 NSCLC it was 0.194 µM and 0.234 µM; in the test with HT29 colon, 1.61 µM; in the test on MOLT-4 leukemia it was 0.0307 µM; in the test with MDA-MB-435 it was 1.98 µM. The GI50 was 0.468 µM in the test with SR leukemia; 1.81 µM and 2.14 µM in the test with OVCAR-3 ovarian.
In the case of `Cc1occc1C(=S)Nc1ccc(Cl)c(COC(C)(C)C)c1`, the TGI came out at 33.1 µM in the test with OVCAR-4 ovarian; 35.9 µM in the test on SF-268 CNS; 31 µM in the test with NCI-H460 lung; 44.9 µM with HOP-62 NSCLC; 29.6 µM in the test on HT29 colon; 47.9 µM with MOLT-4 leukemia. Also, the TGI in the test with MDA-MB-435 was determined as 30.7 µM; in the test on SR leukemia it was 41.8 µM; in the test with HCT-15 colon, 34.5 µM; in the test with OVCAR-3 ovarian it was 30 µM.
Take `C=C1C(=O)O[C@H]2[C@H]1CC/C(COC(=O)NCc1ccccc1OC)=C\CC[C@@]1(C)O[C@@H]21`: the GI50 in the test with OVCAR-4 ovarian is 1.78 µM; in the test with SF-268 CNS, 2.2 µM; with NCI-H460 lung, 3.73 µM; in the test with HOP-62 NSCLC, 3.69 µM; with HT29 colon, 1.22 µM; in the test with MOLT-4 leukemia, 2.53 µM. Also, the GI50 is 1.7 µM with MDA-MB-435, 0.679 µM in the test on SR leukemia, 1.04 µM with HCT-15 colon and 0.872 µM in the test with OVCAR-3 ovarian. Besides, the TGI in the test on OVCAR-4 ovarian stood at 4.92 µM; with SF-268 CNS it was 6.74 µM; in the test with NCI-H460 lung, 14.6 µM; with HOP-62 NSCLC, 14.4 µM; in the test on HT29 colon it was 3.43 µM; in the test on MOLT-4 leukemia, 6.13 µM. Further, the TGI turned out to be 4.86 µM in the test with MDA-MB-435, 5.19 µM in the test with SR leukemia, 2.47 µM with HCT-15 colon and 2.42 µM with OVCAR-3 ovarian.
Consider `COC1(C(=O)N[C@@H](C)c2ccc(-n3cc(F)cn3)nc2)CCC(c2nc(C)cc(Nc3cc(C)[nH]n3)n2)CC1` (stereo partly specified), for which the GI50 in the test with OVCAR-4 ovarian is 1.94 µM; in the test with SF-268 CNS, 0.811 µM; with NCI-H460 lung, 5.2 µM; in the test with HOP-62 NSCLC, 1.34 µM; in the test on HT29 colon, 2.31 µM; with MOLT-4 leukemia, 3.48 µM. The GI50 with MDA-MB-435 is 8.27 µM; in the test on SR leukemia it was 6.14 µM; in the test with HCT-15 colon, 2.93 µM; with OVCAR-3 ovarian it was 3.13 µM. Besides, the TGI in the test with OVCAR-4 ovarian was 17.9 µM; with SF-268 CNS it was 8.04 µM; with NCI-H460 lung, 18.5 µM; with HOP-62 NSCLC, 14.6 µM; with HT29 colon, 22.4 µM; in the test with MOLT-4 leukemia, greater than 100 µM. Further, the TGI in the test on MDA-MB-435 is 21.1 µM; in the test with SR leukemia, greater than 100 µM; in the test with HCT-15 colon, 13.3 µM; in the test with OVCAR-3 ovarian, 20.6 µM.
Regarding `CC(C)(C)C[C@H]1NC(C(=O)NCC[C@H](O)CO)[C@H](c2cccc(Cl)c2)[C@@]12C(=O)Nc1cc(Cl)c(F)cc12` (stereo partly specified), the GI50 was 14.8 µM in the test with OVCAR-4 ovarian; 13.7 µM with SF-268 CNS; 2.45 µM in the test with NCI-H460 lung; 15.5 µM in the test on HOP-62 NSCLC; 17 µM with HT29 colon; 2.19 µM with MOLT-4 leukemia. Also, the GI50 is 14.1 µM in the test with MDA-MB-435, 1.83 µM with SR leukemia, 17.8 µM in the test on HCT-15 colon and 14.6 µM in the test with OVCAR-3 ovarian. Also, the TGI in the test with OVCAR-4 ovarian was found to be 32.4 µM; with SF-268 CNS, 30.2 µM; with NCI-H460 lung, 14.6 µM; with HOP-62 NSCLC, 29.7 µM; in the test with HT29 colon, 32.4 µM; in the test with MOLT-4 leukemia it was 8.22 µM. Also, the TGI in the test with MDA-MB-435 came to 29.6 µM; in the test with SR leukemia, 10.1 µM; with HCT-15 colon, 37.5 µM; in the test on OVCAR-3 ovarian, 28.1 µM.
As to `Nc1ccn(Cc2ccc(C34CC5CC(CC(C5)C3)C4)c(O)c2)c(=O)n1`, the GI50 was greater than 100 µM in the test with OVCAR-4 ovarian; 67.1 µM with SF-268 CNS; greater than 100 µM in the test with NCI-H460 lung; 22.5 µM in the test with HOP-62 NSCLC; greater than 100 µM in the test on HT29 colon; 54.4 µM with MOLT-4 leukemia. Further, the GI50 in the test with MDA-MB-435 is greater than 100 µM; in the test on SR leukemia, greater than 100 µM; in the test with HCT-15 colon it was greater than 100 µM; in the test on OVCAR-3 ovarian, 58.9 µM. Also, the TGI is greater than 100 µM in the test with OVCAR-4 ovarian; greater than 100 µM in the test with SF-268 CNS; greater than 100 µM in the test on NCI-H460 lung; 76.4 µM with HOP-62 NSCLC; greater than 100 µM with HT29 colon; greater than 100 µM in the test with MOLT-4 leukemia. In addition, the TGI in the test on MDA-MB-435, in the test on SR leukemia, in the test with HCT-15 colon and in the test with OVCAR-3 ovarian was greater than 100 µM each time.
Regarding `Cc1ccc2c(ccc3c[n+]4c5ccccc5ccc4n32)c1`, the GI50 is 1.32 µM with OVCAR-4 ovarian; 0.39 µM in the test on SF-268 CNS; 1.2 µM in the test on NCI-H460 lung; 1.28 µM in the test with HOP-62 NSCLC; 2.08 µM in the test with HT29 colon; 1.65 µM in the test with MOLT-4 leukemia. Moreover, the GI50 in the test with MDA-MB-435 is 1.13 µM; in the test on SR leukemia, 1.47 µM; in the test with HCT-15 colon, 7.33 µM; in the test on OVCAR-3 ovarian, 0.459 µM. In addition, the TGI in the test on OVCAR-4 ovarian worked out at 4.64 µM; with SF-268 CNS, 2.13 µM; in the test with NCI-H460 lung it was 5.41 µM; in the test with HOP-62 NSCLC it was 12.6 µM; in the test on HT29 colon, 8.77 µM; in the test on MOLT-4 leukemia, 9.65 µM. For the same compound, the TGI with MDA-MB-435 is 2.55 µM; in the test on SR leukemia, 16.7 µM; with HCT-15 colon, greater than 100 µM; in the test on OVCAR-3 ovarian it was 2.63 µM.
As to `Cc1[c-]onc1C.Cc1[c-]onc1C.[Ag].[Ag].[NH-]S(=O)(=O)c1ccc(N=Nc2cc(N=Nc3ccc(S([NH-])(=O)=O)cc3)c3c(NC(=O)C(Cl)Cl)cccc3c2OC(=O)C(Cl)Cl)cc1`, the GI50 in the test on OVCAR-4 ovarian was 7.66 µM; with SF-268 CNS, 8.78 µM; in the test on NCI-H460 lung, 6.53 µM; in the test with HOP-62 NSCLC, 16.8 µM; with HT29 colon, 9.29 µM; in the test with MOLT-4 leukemia it was 8.18 µM. Moreover, the GI50 in the test with MDA-MB-435 is 7.87 µM; in the test on SR leukemia, 9.59 µM; in the test on HCT-15 colon, 9.82 µM; in the test on OVCAR-3 ovarian, 7.6 µM. In addition, the TGI was 15.1 µM in the test with OVCAR-4 ovarian; 28.1 µM with SF-268 CNS; 18.1 µM in the test with NCI-H460 lung; 38.9 µM in the test on HOP-62 NSCLC; 21.7 µM with HT29 colon; 28.1 µM in the test on MOLT-4 leukemia. Moreover, the TGI is 16.3 µM in the test on MDA-MB-435, 42.5 µM with SR leukemia, 32.1 µM with HCT-15 colon and 15.8 µM in the test on OVCAR-3 ovarian.
On to `Nc1c(C(=O)Nc2cccc([N+](=O)[O-])c2)sc2nc3c(cc12)C(O)CCC3` (stereo unspecified), for which the GI50 is greater than 36.2 µM in the test on OVCAR-4 ovarian; 9.62 µM with SF-268 CNS; 4.93 µM with NCI-H460 lung; 6.66 µM with HOP-62 NSCLC; 2.89 µM with HT29 colon; 5.74 µM with MOLT-4 leukemia. Further, the GI50 with MDA-MB-435 was 0.403 µM; in the test on SR leukemia, 1.96 µM; in the test on HCT-15 colon, 2.82 µM; in the test on OVCAR-3 ovarian it was 4.53 µM. Moreover, the TGI was greater than 100 µM in the test on OVCAR-4 ovarian; greater than 89.8 µM in the test on SF-268 CNS; greater than 100 µM with NCI-H460 lung; greater than 100 µM with HOP-62 NSCLC; greater than 100 µM in the test on HT29 colon; greater than 100 µM in the test with MOLT-4 leukemia. Moreover, the TGI in the test with MDA-MB-435 is 2.78 µM; in the test with SR leukemia it was greater than 100 µM; with HCT-15 colon it was greater than 100 µM; in the test on OVCAR-3 ovarian, greater than 100 µM.
Regarding `CN(CCCN)CCCNc1nc2ccccc2c2[nH]c3ccccc3c12`, the GI50 is 0.201 µM with OVCAR-4 ovarian; 0.241 µM in the test with SF-268 CNS; 0.304 µM in the test on NCI-H460 lung; 0.179 µM in the test with HOP-62 NSCLC; 0.193 µM in the test with HT29 colon; 0.186 µM in the test on MOLT-4 leukemia. For the same compound, the GI50 in the test on MDA-MB-435 is 0.281 µM; with SR leukemia, 0.381 µM; with HCT-15 colon, 0.446 µM; in the test with OVCAR-3 ovarian, 0.359 µM. The TGI in the test with OVCAR-4 ovarian was 0.614 µM; in the test with SF-268 CNS, 1.07 µM; in the test with NCI-H460 lung it was 1.17 µM; in the test on HOP-62 NSCLC, 0.683 µM; with HT29 colon, 0.951 µM; in the test with MOLT-4 leukemia, 1.24 µM. For the same compound, the TGI is 0.816 µM in the test on MDA-MB-435, 2.25 µM in the test on SR leukemia, 9.68 µM in the test with HCT-15 colon and 1.35 µM with OVCAR-3 ovarian.
On to `ClCCn1c(CCl)nc2ccc(Cl)cc21`, for which the GI50 in the test on OVCAR-4 ovarian was 1.34 µM; in the test with SF-268 CNS, 1.22 µM; in the test on NCI-H460 lung, 0.955 µM; in the test with HOP-62 NSCLC it was 1.58 µM; in the test on HT29 colon, 0.436 µM; in the test on MOLT-4 leukemia it was 0.305 µM. For the same compound, the GI50 with MDA-MB-435 was 0.692 µM; in the test with SR leukemia, 0.232 µM; with HCT-15 colon, 0.392 µM; in the test on OVCAR-3 ovarian it was 1.87 µM. Moreover, the TGI in the test with OVCAR-4 ovarian turned out to be 4.71 µM; with SF-268 CNS, 2.95 µM; with NCI-H460 lung, 4.59 µM; with HOP-62 NSCLC it was 3.3 µM; in the test on HT29 colon, 1.39 µM; with MOLT-4 leukemia, 0.81 µM. Besides, the TGI in the test on MDA-MB-435 turned out to be 2.12 µM; in the test with SR leukemia, 4.32 µM; in the test with HCT-15 colon, 2.23 µM; in the test with OVCAR-3 ovarian it was 3.45 µM.
